Measured values: patent US20050026849A1, “Water soluble formulations of digitalis glycosides for treating cell-proliferative and other diseases” (priority 2003, published 2005)

How the values were obtained:
[1] = tested on: primary cultures of tumor cells from patients and a human cell line panel; details: cited from earlier work
[2] = tested on: different human malignant cell lines; details: non-toxic concentrations; cited from earlier work
[3] = tested on: androgen-independent human prostate cancer cell lines; details: in vitro; cited from earlier work
[4] = rapidly dissolving γ-cyclodextrin complex (molar ratio 1:4), oral, dogs; cited from earlier work
[5] = tested on: various cancer cell lines; details: cited from earlier work
[6] = in vivo; cited from earlier work
[7] = Solubilization in aqueous hydroxypropyl-cyclodextrin solution; assay type: physicochemical
Description: (§1) 100 milligrams of oleandrin was weighed and placed in a 5 mL scintillation tube. 1.5 mL of absolute ethanol was added to the tube and shaken until the oleandrin was completely dissolved. 5 grams of pyrogen free hydroxypropyl-β-cyclodextrin (sold by, Sigma-Aldrich, Inc., St. Louis, Mo., USA) was weighed on an analytical scale and placed in a graduated cylinder. Water was added with shaking until the volume reached 90 ml. The above ethanolic solution of oleandrin was added to the aqueous solution containing hydroxypropyl-β-cyclodextrin with stirring. A clear solution was obtained. Water was added to the clear solution to make the total volume to 100 mL. Thus, 1 mg oleandrin was effectively solubilized in 1 ml of 5% solution of hydroxypropyl-β-cyclodextrin. The solution was sterile-filtered through a 0.22 μm filter. The suspension was frozen below −40° C. and lyophilized. The lyophilized cake was reconstituted with sterile water for injection prior to further use.
The previous experiment was repeated using a 2% solution of hydroxypropyl-β-cyclodextrin prepared as in Example 1. 100 mg of oleandrin was dissolved in 100 mL of water containing 2.5 grams of hydroxypropyl-β-cyclodextrin. The solution was sterile-filtered through a 0.22 μm filter. The solution was frozen below −40° C. and lyophilized. The lyophilized cake was reconstituted with sterile water for injection prior to further use.
The experiment in example 1 was repeated using a 100 mg of Odoroside-A instead of oleandrin. 100 mg of Odoroside-A was dissolved in 5 grams of hydroxypropyl-β-cyclodextrin in 100 mL of water. The solution was sterile-filtered through a 0.22 μm filter. The solution was frozen below −40° C. and lyophilized. The lyophilized cake was reconstituted with sterile water for injection prior to further use.
as §1, with “5mL” for “5 mL”, “1-2” for “1.5”, “2.5” for “5”, “hydroxypropyl-γ-cyclodextrin” for “hydroxypropyl-β-cyclodextrin”, “2.5%” for “5%”, “hydroxypropyl-γ-cyclodextrin.” for “hydroxypropyl-β-cyclodextrin.”
as §1, with “of Proscillaridin-A” for “of oleandrin”, “tube. 1-2” for “tube. 1.5”, “the Proscillaridin-A” for “the oleandrin”, “dissolved. 2” for “dissolved. 5”, “mg Proscillaridin-A” for “mg oleandrin”, “of 2%” for “of 5%”
The previous experiment was repeated using a 5% solution of hydroxypropyl-β-cyclodextrin prepared as in Example 5. […]

[8] = tested on: human cancer cells; details: cited from earlier work
[9] = tested on: FGF-2 release from DU145 cells; details: 0.1 ng/mL; cited from earlier work
[10] = tested on: AP-1; details: induced by TNF and other agents; cited from earlier work
[11] = tested on: FGF-2 release from PC3 cells; details: 0.1 ng/mL; cited from earlier work
[12] = Oleandrin stirred and shaken with water; assay type: physicochemical; details: 10 mg stirred and shaken with 10 ml of water, after 20 minutes
Description: 10 milligrams (mg) of oleandrin was stirred and shaken with 10 ml of water in a test tube.

[13] = tested on: NF-κB; details: cited from earlier work
[14] = oral tablet containing 0.25 mg, humans; cited from earlier work
[15] = in 1 ml of 2.5% solution of hydroxypropyl-γ-cyclodextrin
[16] = in 50 ml of 9.8% solution of hydroxypropyl-β-cyclodextrin, 70-80 degree centigrade
[17] = in 100 mL of water containing 5 grams of hydroxypropyl-β-cyclodextrin

Q: Which results are given for `C[C@H]1O[C@@H](O[C@H]2[C@@H](O)C[C@H](O[C@H]3[C@@H](O)C[C@H](O[C@H]4CC[C@@]5(C)[C@H](CC[C@@H]6[C@@H]5CC[C@]5(C)[C@@H](C7=CC(=O)OC7)CC[C@]65O)C4)O[C@@H]3C)O[C@@H]2C)C[C@H](O)[C@@H]1O` [digitoxin]?
A: selective toxicity solid vs hematological tumor cells [1]: selective toxicity against solid tumor cells; growth and apoptosis [2]: inhibits growth and induce apoptosis

Q: For `C[C@@H]1O[C@@H](O[C@H]2C[C@@H](O)[C@]3(CO)[C@H]4[C@H](O)C[C@]5(C)[C@@H](C6=CC(=O)OC6)CC[C@]5(O)[C@@H]4CC[C@]3(O)C2)[C@H](O)[C@H](O)[C@H]1O` [Ouabain], which induction of apoptosis [3] is on record?
A: induce apoptosis

Q: With `C[C@H]1O[C@@H](O[C@H]2[C@@H](O)C[C@H](O[C@H]3[C@@H](O)C[C@H](O[C@H]4CC[C@@]5(C)[C@H](CC[C@@H]6[C@@H]5C[C@@H](O)[C@]5(C)[C@@H](C7=CC(=O)OC7)CC[C@]65O)C4)O[C@@H]3C)O[C@@H]2C)C[C@H](O)[C@@H]1O` [digoxin] as the compound, how does the “selective toxicity solid vs hematological tumor cells” value [1] read?
A: selective toxicity against solid tumor cells

Q: What about the induction of apoptosis [3] of the same compound?
A: induce apoptosis

Q: What about the “increase of plasma levels” value [4] of the same compound?
A: approximately 5.4 fold

Q: What about the growth and apoptosis [2] of the same compound?
A: inhibits growth and induce apoptosis

Q: Which anti-cancer activity [5] does the source give for `CO[C@@H]1C[C@H](O[C@H]2CC[C@@]3(C)[C@H](CC[C@@]45O[C@@]46CC[C@H](C4=CC(=O)OC4)[C@@]6(C)CC[C@H]35)C2)O[C@H](C)[C@@H]1O` [adynerin] here?
A: significant anti-cancer activities

Q: With `CO[C@H]1C[C@H](O[C@H]2CC[C@@]3(C)[C@H](CC[C@@H]4[C@@H]3CC[C@]3(C)[C@@H](C5=CC(=O)OC5)[C@@H](OC(C)=O)C[C@]43O)C2)O[C@@H](C)[C@@H]1O` [oleandrin, 16b-acetoxy-3b-[(2,6 dideoxy-3-0-methyl-a2-L-arabino-hexopyranosyl)oxy]-14-hydroxy-5β, 14β-card-20(22)-enolide] as the compound, how does the “time of elimination from the body” value [6] read?
A: one to two

Q: What about the induction of apoptosis [3] of the same compound?
A: induce apoptosis

Q: What about the anti-cancer activity [5] of the same compound?
A: significant anti-cancer activities

Q: What about the amount effectively solubilized [7, 15] of the same compound?
A: 1 mg

Q: And the amount effectively solubilized ([7]; in 1 ml of 5% solution of hydroxypropyl-β-cyclodextrin)?
A: 1 mg

Q: And the amount effectively solubilized [7, 16]?
A: 100 mg

Q: What about the amount dissolved ([7]; in 100 mL of water containing 2.5 grams of hydroxypropyl-β-cyclodextrin (called 2% solution)) of the same compound?
A: 100 mg

Q: What about the cell killing [8] of the same compound?
A: able to induce cell killing

Q: And the “inhibition of FGF-2 release” value [9]?
A: 49.9%

Q: What about the AP-1 activation [10] of the same compound?
A: blocked

Q: And the “inhibition of FGF-2 release” value [11]?
A: 45.7%

Q: What about the dissolution in water [12] of the same compound?
A: Appreciable quantities of compound remained out of solution

Q: What about the “TNF-induced activation of NF-κB” value [13] of the same compound?
A: blocked

Q: Which amount dissolved [7, 17] does the source give for `CO[C@@H]1C[C@H](O[C@H]2CC[C@@]3(C)[C@H](CC[C@@H]4[C@@H]3CC[C@]3(C)[C@@H](C5=CC(=O)OC5)CC[C@]43O)C2)O[C@H](C)[C@@H]1O` [Odoroside-A, Odoroside A] here?
A: 100 mg

Q: With `C[C@H]1[C@H](C)CC[C@]2(C(=O)O)CC[C@]3(C)C(=CC[C@@H]4[C@@]5(C)CC[C@H](O)C(C)(C)[C@@H]5CC[C@]43C)[C@H]12` [ursolic acid] as the compound, how does the anti-cancer activity [5] read?
A: significant anti-cancer activities

Q: What does the source list for `C[C@@H]1O[C@@H](O[C@@H]2C=C3CC[C@@H]4[C@H](CC[C@]5(C)[C@@H](c6ccc(=O)oc6)CC[C@]45O)[C@@]3(C)CC2)[C@H](O)[C@H](O)[C@H]1O` [Proscillaridin-A, Proscillaridin A, reference compound]?
A: selective toxicity solid vs hematological tumor cells [1]: no selective toxicity; amount effectively solubilized ([7]; in 1 ml of 2% solution of hydroxypropyl-β-cyclodextrin): 1 mg; amount effectively solubilized [7, 15]: 1 mg; amount effectively solubilized [7, 16]: 100 mg; amount dissolved [7, 17]: 100 mg; bioavailability [14]: 20-30%
